Experimental data published in patent US6461997B1, “Triazole sulfones having herbicidal activity” (Monsanto Technology LLC, priority 1999, dated 2002).

Experiments:
SOLNI (black nightshade) = test: Pre-plant incorporated (PPI) herbicidal activity, warm season; format: in vivo, Solanum nigrum; settings: for Percent inhibition SOLNI: PPI application; for PPI activity (GR80) SOLNI: pre-plant incorporated, GR80 = lowest tested rate with 80% or greater inhibition, approx. 14 days after treating, 30/21° C.
Procedure: (§1) In another set of tests, the pre-plant incorporated (PPI) activity of compounds of this invention was evaluated on the same species as for the pre-emergence tests described above. In the PPI tests the following procedure, designed to simulate PPI application, was used.
(§2) A pre-prepared topsoil mixture (described above) was placed in a pot and compacted to a depth of 1.0 to 1.25 cm from the top of the pot. Seeds of each of several monocotyledonous and dicotyledonous annual plant species were placed on top of the soil. A sufficient quantity of soil to cover the seeds and level fill the pot was weighed into an open container. A known amount of the test compound was dissolved or suspended in an organic solvent and applied by spraying to this cover soil. The cover soil was thoroughly mixed to distribute the test compound throughout the cover soil, and was then applied as a cover layer over the seeds. Untreated soil was used as a cover layer for control pots. After treatment the plants were placed in a greenhouse where they received 0.64 cm of overhead irrigation. All subsequent watering consisted of a light overhead mist and/or subirrigation as needed for germination and growth. Tables 9 and 10 below relate to warm season plant species which were placed after pre-emergence treatment in a greenhouse with a 30/21° C. day/night temperature regime. Tables 11 and 12 below relates to cool season plant species placed after pre-emergence treatment in a greenhouse or growth chamber with an 18/13° C. day/night temperature regime. Only the compounds of Examples 1, 6, 8, 11, 13 and 15-20 were included in PPI tests.
(§3) Approximately 14 days after planting and treating, the plants were observed and herbicidal efficacy recorded as percent inhibition by comparison with untreated plants.

wheat (TRZAW) = test: Selectivity test, PPI, cool season crop; format: in vivo, Triticum aestivum; settings: PPI application
Procedure: as §2, §3
Additional pre-emergence and PPI tests were conducted by the procedures described above, on warm and cool season weed species in the presence of crop species, to assess herbicidal selectivity. Crop species included in warm season tests were corn (Zea mays, ZEAMX), rice (Oryza sativa, ORYSA) and soybean (Glycine max, GLYMX). Crop species included in cool season tests were wheat (Triticum aestivum, TRZAW), barley (Hordeunm vulgare, HORVX) and oilseed rape (Brassica napus, BRSNS).
Tables 15 and 16 relate to pre-emergence and PPI tests respectively on warm season species. Table 17 relates to pre-emergence tests on cool season species.

[1] = tested on: BRAPP (broadleaf signalgrass); test: Pre-emergence herbicidal activity, warm season; format: in vivo, Brachiaria platyphylla; settings: GR80 = lowest tested rate (300, 100, 30, 10 g/ha) with 80% or greater inhibition; approx. 14 days after treating; 30/21° C.
Outline: (§4)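 Seeds sown in sterilised fertilised topsoil received surface-applied compound in 50:50 acetone/water, typically at 300, 100, 30 and 10 g/ha, then greenhouse-grown at 30/21° C (warm-season species) or 18/13° C (cool-season species). Percent inhibition versus untreated plants was scored at about 14 days, giving GR80; an asterisk marks activity short of 80% at the top rate.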

[2] = tested on: CHEAL (common lambsquarters); test: Pre-plant incorporated (PPI) herbicidal activity, warm season; format: in vivo, Chenopodium album; settings: for Percent inhibition CHEAL: PPI application; for PPI activity (GR80) CHEAL: pre-plant incorporated, GR80 = lowest tested rate with 80% or greater inhibition, approx. 14 days after treating, 30/21° C.
Procedure: as §1, §2, §3

PANDI (fall panicum) = test: Pre-emergence herbicidal activity, warm season; format: in vivo, Panicum dichotomiflorum; settings: GR80 = lowest tested rate (300, 100, 30, 10 g/ha) with 80% or greater inhibition; approx. 14 days after treating; 30/21° C.
Outline: as §4

[3] = tested on: CHEAL (common lambsquarters); test: Pre-emergence herbicidal activity, warm season; format: in vivo, Chenopodium album; settings: GR80 = lowest tested rate (300, 100, 30, 10 g/ha) with 80% or greater inhibition; approx. 14 days after treating; 30/21° C.
Outline: as §4

[4] = tested on: BRAPP (broadleaf signalgrass); test: Pre-plant incorporated (PPI) herbicidal activity, warm season; format: in vivo, Brachiaria platyphylla; settings: for Percent inhibition BRAPP: PPI application; for PPI activity GR80, BRAPP: pre-plant incorporated, lowest tested rate with 80% or greater inhibition, about 14 days
Procedure: as §1, §2, §3

SASKR (russian thistle) = test: Pre-plant incorporated (PPI) herbicidal activity, cool season; format: in vivo, Salsola kali; settings: for PPI activity GR80, SASKR: pre-plant incorporated, lowest tested rate with 80% or greater inhibition, about 14 days; for Percent inhibition SASKR: weed, PPI application
Procedure: as §1, §2, §3

[5] = tested on: AGSST (creeping bentgrass); test: as above; format: in vivo, Agrostis stolonifera; settings: for PPI activity GR80, AGSST: pre-plant incorporated, lowest tested rate with 80% or greater inhibition, about 14 days; for Percent inhibition AGSST: weed, PPI application
Procedure: as §1, §2, §3

[6] = tested on: SORHA (johnsongrass (seedling)); test: Pre-emergence herbicidal activity, warm season; format: in vivo, Sorghum halepense; settings: GR80 = lowest tested rate (300, 100, 30, 10 g/ha) with 80% or greater inhibition; approx. 14 days after treating; 30/21° C.
Outline: as §4

POROL (common purslane) = test: Pre-emergence herbicidal activity, warm season; format: in vivo, Portulaca oleracea; settings: GR80 = lowest tested rate (300, 100, 30, 10 g/ha) with 80% or greater inhibition; approx. 14 days after treating; 30/21° C.
Outline: as §4

Compound	Percent inhibition SOLNI (SOLNI (black nightshade); 10 g/ha)	Percent inhibition SOLNI (SOLNI (black nightshade); 100 g/ha)	Percent inhibition SOLNI (SOLNI (black nightshade); 300 g/ha)	Percent inhibition SOLNI (SOLNI (black nightshade); 900 g/ha)	PPI activity (GR80) SOLNI (SOLNI (black nightshade))	Percent inhibition TRZAW (wheat (TRZAW); 10 g/ha)	Percent inhibition TRZAW (wheat (TRZAW); 30 g/ha)	Percent inhibition TRZAW (wheat (TRZAW); 100 g/ha)	Percent inhibition TRZAW (wheat (TRZAW); 300 g/ha)	Percent inhibition TRZAW (wheat (TRZAW); 900 g/ha)	Pre-emergence activity (GR80) BRAPP [1]	Percent inhibition CHEAL ([2]; 10 g/ha)	Percent inhibition CHEAL ([2]; 30 g/ha)	Percent inhibition CHEAL ([2]; 100 g/ha)	Percent inhibition CHEAL ([2]; 300 g/ha)	Percent inhibition CHEAL ([2]; 900 g/ha)	PPI activity (GR80) CHEAL [2]	Pre-emergence activity (GR80) PANDI (PANDI (fall panicum))	Pre-emergence activity (GR80) CHEAL [3]	Percent inhibition BRAPP ([4]; 10 g/ha)	also measured
CCN(CC)C(=O)n1cnc(S(=O)(=O)C(F)(F)SCCOC)n1 [Example 13]	0%	60%	95%	100%	100 g/ha	0%	0%	20%	20%	30%	300 g/ha	30%	20%	100%	100%	100%	30 g/ha	300 g/ha	300 g/ha	40%	Percent inhibition SOLNI (SOLNI (black nightshade); 30 g/ha): 30%; Percent inhibition BRAPP ([4]; 30 g/ha): 80%; Percent inhibition BRAPP ([4]; 100 g/ha): 95%; Percent inhibition BRAPP ([4]; 300 g/ha): 99%; Percent inhibition BRAPP ([4]; 900 g/ha): 100%; PPI activity GR80, BRAPP [4]: 100 g/ha; PPI activity GR80, SASKR (SASKR (russian thistle)): 300 g/ha; Percent inhibition SASKR (SASKR (russian thistle); 10 g/ha): 20%; Percent inhibition SASKR (SASKR (russian thistle); 30 g/ha): 30%; Percent inhibition SASKR (SASKR (russian thistle); 100 g/ha): 80%; Percent inhibition SASKR (SASKR (russian thistle); 300 g/ha): 100%; Percent inhibition SASKR (SASKR (russian thistle); 900 g/ha): 100%; PPI activity GR80, AGSST [5]: 30 g/ha; Percent inhibition AGSST ([5]; 10 g/ha): 60%; Percent inhibition AGSST ([5]; 30 g/ha): 95%; Percent inhibition AGSST ([5]; 100 g/ha): 100%; Percent inhibition AGSST ([5]; 300 g/ha): 100%; Percent inhibition AGSST ([5]; 900 g/ha): 100%
CCN(CC)C(=O)n1cnc(S(=O)(=O)C(F)(F)C(F)F)n1 [Example 16]	100%	100%	95%	100%	30 g/ha	0%	0%	10%	10%	20%	300 g/ha	100%	100%	100%	100%	100%	30 g/ha	100 g/ha	300 g/ha	20%	Percent inhibition BRAPP ([4]; 30 g/ha): 60%; Percent inhibition BRAPP ([4]; 100 g/ha): 100%; Percent inhibition BRAPP ([4]; 300 g/ha): 100%; Percent inhibition BRAPP ([4]; 900 g/ha): 100%; PPI activity GR80, BRAPP [4]: 10 g/ha; Pre-emergence activity (GR80) SORHA [6]: 100 g/ha; Pre-emergence activity (GR80) POROL (POROL (common purslane)): 100 g/ha; PPI activity GR80, SASKR (SASKR (russian thistle)): 30 g/ha; Percent inhibition SASKR (SASKR (russian thistle); 10 g/ha): 65%; Percent inhibition SASKR (SASKR (russian thistle); 30 g/ha): 90%; Percent inhibition SASKR (SASKR (russian thistle); 100 g/ha): 80%; Percent inhibition SASKR (SASKR (russian thistle); 300 g/ha): 80%; Percent inhibition SASKR (SASKR (russian thistle); 900 g/ha): 100%; PPI activity GR80, AGSST [5]: 10 g/ha; Percent inhibition AGSST ([5]; 10 g/ha): 100%; Percent inhibition AGSST ([5]; 30 g/ha): 100%; Percent inhibition AGSST ([5]; 100 g/ha): 100%; Percent inhibition AGSST ([5]; 300 g/ha): 100%; Percent inhibition AGSST ([5]; 900 g/ha): 100%
